How the values were obtained:
[1] = Inhibited autoxidation of methyl linoleate in Triton X-100 micelles (O2 uptake kinetics); conditions: for n (stoichiometric factor of peroxyl radical trapping): MeLin/Triton X-100 micelles
Procedure: Autoxidation studies were performed as previously described, with slight modifications. In a typical experiment, 2.5 mL of air-saturated buffered (PBS, 50 mM, pH 7.4) aqueous dispersion of MeLin (final concentration 2.74 mM) in Triton™ X-100 (final concentration 16 mM) micelles were prepared by vortex mixing. A fresh stock solution of AAPH was added (final concentration 2.5 mM), immediately followed by addition (5–30 μL) of a stock solution of the antioxidant in acetonitrile (final concentration of 1–20 μM) and by additional vortex mixing (5 s). The mixture was sealed in a 2 mL glass vial provided with a PTFE-coated stirring bar and capped with the O2 sensor. The sample was equilibrated at 37 °C in a thermostatted bath equipped with a sealed magnetic stirrer, and oxygen concentration was monitored with time as previously described. Oxygen consumption in the absence of antioxidants was compared with that recorded in the presence of butein, homobutein, or α-tocopherol (α-TOH) as the reference antioxidant. […]. The stoichiometric factor n was determined from the length of the inhibited period τ by Equation (3). The rate of initiation Ri was determined in preliminary experiments using α-TOH as the inhibitor (n = 2) by Equation (3). (1) −d[O2]/dt=kp[RH]Ri/nkinh[AH]+Ri (2) R0/Rinh−Rinh/R0=nkinh[AH]/2ktRi (3) n=Riτ/[AH]
To study the antioxidant activity of butein and homobutein on quantitative grounds, we performed inhibited autoxidation studies using biomimetic neutral micelles of methyl linoleate (MeLin) in aqueous Triton™ X-100 (with 50 mM PBS, pH 7.4, 37 °C), since it is a well-validated model we and others used in previous studies. The reaction kinetics was followed by monitoring oxygen consumption via miniaturized NIR-fluorescence-quenching O2 probes, according to a previously validated protocol, both in the absence and in the presence of different concentrations of butein or homobutein. The reaction was initiated thermally in the aqueous phase by the controlled decomposition of the azo compound AAPH so as to clearly distinguish the chain-breaking mechanism from other efficacies based on interference with the initiation process (e.g., the Fenton reaction by metal chelation) and α-TOH was used as the reference antioxidant.

[2] = molecular target: T1, mushroom tyrosinase (mTYR) (Agaricus bisporus, UniProt C7FF04); assay: Inhibition of mushroom tyrosinase monophenolase reaction (substrate L-tyrosine, dopachrome at 475 nm); assay type: biochemical; conditions: for Vmax^app / IC50: 30 °C; for Vmax^app: pH 6.8, L-tyrosine; for IC50: IC50 Monophenolase; for Ki: KI Competitive; for Ki / KI′ Uncompetitive / KI′ Calc. from Km / KI′ Calc. from Vmax: monophenolase; for inhibition mode, monophenolase: from M-M and Lineweaver–Burk plots
T1 construct: purchased Sigma-Aldrich (Milan, Italy)
T1 sequence (C7FF04 1-392): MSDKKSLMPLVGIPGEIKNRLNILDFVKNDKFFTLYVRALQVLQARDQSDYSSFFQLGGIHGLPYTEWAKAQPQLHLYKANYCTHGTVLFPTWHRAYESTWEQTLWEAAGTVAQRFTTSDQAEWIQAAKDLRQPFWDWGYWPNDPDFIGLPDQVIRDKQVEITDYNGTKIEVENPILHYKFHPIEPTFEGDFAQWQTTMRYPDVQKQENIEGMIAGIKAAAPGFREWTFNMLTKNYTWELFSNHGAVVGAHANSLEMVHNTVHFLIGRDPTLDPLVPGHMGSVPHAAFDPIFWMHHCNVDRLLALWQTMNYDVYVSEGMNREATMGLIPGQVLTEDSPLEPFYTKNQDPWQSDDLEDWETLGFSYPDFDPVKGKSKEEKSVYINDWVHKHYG
Procedure: (§1) Measurements were performed at 30 °C in phosphate buffer (50 mM, pH 6.8) in polystyrene low-volume cuvettes (1.5 mL, l = 1 cm) with a double-beam spectrophotometer. […] The reaction was monitored at 475 nm for up to 60 min, following dopachrome formation. Initial velocity (V = ΔA/Δmin) was converted in μM/min according to Lambert–Beer law using the molar extinction coefficient ε = 3700 M^−1cm^−1 for dopachrome at λmax = 475 nm. Michaelis–Menten parameters (Km e Vmax) were obtained by processing initial velocity vs. substrate concentration data by non-linear fitting to M-M Equation (4), using Sigmaplot 11.0 (Systat Software Inc., San Jose, CA, USA). Linearized Lineweaver–Burk Equation (5) was used to identify the inhibition mode. In both equations, V indicates the measured initial rate of reaction, [S] is the initial substrate concentration, while Vmax and Km are, respectively, the maximum reaction rate (at saturating substrate concentration) and the M-M constant, with the substrate concentration yielding half-maximum rate.
(§2) Determination of M-M inhibition constants KI and KI′, along with assignment of the inhibition mode, is the most reliable method to accurately quantify the potency of enzyme inhibitors, as it is independent of the experimental settings, like substrate and enzyme concentrations.

mTYR [3] = molecular target: mTYR (Agaricus bisporus, UniProt C7FF04); assay: Stability toward air and mTYR, decay of concentration by UV-Vis; conditions: air-saturated PBS pH 6.8, 30 °C, 7 U/ml mTYR, 0.05 and 0.1 mM
Sequence of mTYR (Agaricus bisporus, UniProt C7FF04) (C7FF04 1-392): as above

[4] = molecular target: T1, mushroom tyrosinase (mTYR); assay: Inhibition of mushroom tyrosinase diphenolase reaction (substrate L-dopa, dopachrome at 475 nm); assay type: biochemical; conditions: for Vmax^app / IC50: 30 °C; for Vmax^app: pH 6.8, L-dopa; for IC50: IC50 Diphenolase; for Ki: KI Competitive; for inhibition mode, diphenolase: from M-M and Lineweaver–Burk plots
Procedure: as §1
(10) KI=[I]/α−1 and KI′=[I]/α^′−1 where (11) α=(Kmapp × α^′)/Km and α^′=Vmax/Vmaxapp
as §2

mTYR [5] = assay: Stability toward air and mTYR, oxygen consumption; conditions: 0.1 mM, pH 6.8, 30 °C, axes [O2] M vs Time / s
[6] = AAPH (2.5 mM) initiated autoxidation of MeLin/Triton X-100 micelles, 37 °C, pH 7.4
[7] = MeLin in Triton X-100 micelles, pH 7.4, 37 °C
[8] = average over inhibitor concentrations
[9] = diphenolase, average over inhibitor concentrations
[10] = diphenolase, inhibitor 0.175 µM

COc1cc(/C=C/C(=O)c2ccc(O)cc2O)ccc1O [Homobutein, (E)-1-(2,4-dihydroxyphenyl)-3-(4-hydroxy-3-methoxyphenyl)prop-2-en-1-one]
kinh (inhibition rate constant) [1, 6]: 2.8 ± 0.9 10^3 M^−1s^−1
kinh (inhibition rate constant) [1, 7]: (2.8 ± 0.9) × 10^3 M^−1s^−1
kinh (inhibition rate constant) ([1]; MeLin in Triton X-100 micelles, pH 7.4, 37 °C, listed as homobutein): 2800 M⁻¹ s⁻¹
Vmax^app ([2]; inhibitor 1.4 µM): 3.83 ± 0.04 µM/min
Vmax^app ([2]; inhibitor 2.8 µM): 3.78 ± 0.05 µM/min
Vmax^app ([2]; inhibitor 5.6 µM): 3.63 ± 0.06 µM/min
Vmax^app ([2]; inhibitor 11.2 µM): 3.15 ± 0.03 µM/min
IC50 ([2]; pH 6.8, L-tyrosine 0.05 mM): 4.01 ± 0.66 µM
IC50 ([2]; pH 6.8, L-tyrosine 0.125 mM): 4.58 ± 0.88 µM
IC50 ([2]; pH 6.8, L-tyrosine 0.25 mM): 6.06 ± 0.95 µM
IC50 ([2]; pH 6.8, L-tyrosine 0.50 mM): 8.75 ± 1.18 µM
IC50 ([2]; pH 6.8, L-tyrosine 1.00 mM): 14.8 ± 1.05 µM
Ki [2, 8]: 2.76 ± 0.7 µM
Ki ([2]; inhibitor 1.4 µM): 2.19 µM
Ki ([2]; inhibitor 2.8 µM): 2.24 µM
Ki ([2]; inhibitor 5.6 µM): 2.94 µM
Ki ([2]; inhibitor 11.2 µM): 3.67 µM
inhibition mode, monophenolase [2]: nearly competitive
KI′ Uncompetitive ([2]; mixed-type treatment, average): 140.53 ± 94.57 µM
KI′ Uncompetitive ([2]; mixed-type treatment, inhibitor 1.4 µM): 268.10 µM
KI′ Uncompetitive ([2]; mixed-type treatment, inhibitor 2.8 µM): 151.20 µM
KI′ Uncompetitive ([2]; mixed-type treatment, inhibitor 5.6 µM): 92.40 µM
KI′ Uncompetitive ([2]; mixed-type treatment, inhibitor 11.2 µM): 50.40 µM
behaviour as substrate of mTYR (mTYR [3]): not a significant substrate
Vmax^app ([4]; inhibitor 0.175 µM): 11.48 ± 0.22 µM/min
Vmax^app ([4]; inhibitor 0.70 µM): 11.30 ± 0.88 µM/min
Vmax^app ([4]; inhibitor 1.4 µM): 11.10 ± 0.21 µM/min
Vmax^app ([4]; inhibitor 5.6 µM): 10.84 ± 0.26 µM/min
IC50 ([4]; pH 6.8, L-dopa 0.05 mM): 3.04 ± 0.84 µM
IC50 ([4]; pH 6.8, L-dopa 0.125 mM): 3.83 ± 0.94 µM
IC50 ([4]; pH 6.8, L-dopa 0.25 mM): 5.6 ± 1.07 µM
IC50 ([4]; pH 6.8, L-dopa 0.50 mM): 7.57 ± 1.11 µM
IC50 ([4]; pH 6.8, L-dopa 1.00 mM): 12.4 ± 2 µM
Ki [4, 9]: 2.5 ± 1.56 µM
Ki [4, 10]: 1.28 µM
Ki ([4]; diphenolase, inhibitor 0.70 µM): 1.54 µM
Ki ([4]; diphenolase, inhibitor 1.4 µM): 2.46 µM
Ki ([4]; diphenolase, inhibitor 5.6 µM): 4.72 µM
lowest concentration with clear inhibition detectable ([4]; diphenolase): 175 nM
KI′ Uncompetitive [4, 9]: 38.24 ± 27.81 µM
KI′ Uncompetitive [4, 10]: 16.75 µM
KI′ Uncompetitive ([4]; diphenolase, inhibitor 0.70 µM): 26.38 µM
KI′ Uncompetitive ([4]; diphenolase, inhibitor 1.4 µM): 30.83 µM
KI′ Uncompetitive ([4]; diphenolase, inhibitor 5.6 µM): 79.01 µM
inhibition mode, diphenolase [4]: nearly competitive
oxygen consumption, zero order regression slope b[1] (mTYR [5]; with tyrosinase 7 U/ml): -3.664e-9
oxygen consumption, zero order regression slope b[1] (mTYR [5]; without enzyme): -2.859e-9

O=C(/C=C/c1ccc(O)c(O)c1)c1ccc(O)cc1O [Butein, (E)-1-(2,4-dihydroxyphenyl)-3-(3,4-dihydroxyphenyl)prop-2-en-1-one]
kinh (inhibition rate constant) [1, 6]: 29.8 ± 9.2 10^3 M^−1s^−1
kinh (inhibition rate constant) [1, 7]: (3.0 ± 0.9) × 10^4 M^−1s^−1
kinh (inhibition rate constant) ([1]; MeLin in Triton X-100 micelles, pH 7.4, 37 °C, listed as butein): 30000 M⁻¹ s⁻¹
n (stoichiometric factor of peroxyl radical trapping) ([1]; 37 °C, pH 7.4): 3.7 ± 1.1
n (stoichiometric factor of peroxyl radical trapping) ([1]; 37 °C, pH 7.4, listed as butein): 3.7
Vmax^app ([2]; inhibitor 1.4 µM): 3.24 ± 0.07 µM/min
Vmax^app ([2]; inhibitor 2.8 µM): 3.02 ± 0.05 µM/min
Vmax^app ([2]; inhibitor 5.6 µM): 2.21 ± 0.04 µM/min
Vmax^app ([2]; inhibitor 11.2 µM): 1.95 ± 0.07 µM/min
IC50 ([2]; pH 6.8, L-tyrosine 0.05 mM): 45.1 ± 18.3 µM
IC50 ([2]; pH 6.8, L-tyrosine 0.125 mM): 35.6 ± 28.4 µM
IC50 ([2]; pH 6.8, L-tyrosine 0.25 mM): 12.9 ± 3.22 µM
IC50 ([2]; pH 6.8, L-tyrosine 0.50 mM): 12.3 ± 2.52 µM
IC50 ([2]; pH 6.8, L-tyrosine 1.00 mM): 10.9 ± 2.19 µM
inhibition mode, monophenolase [2]: uncompetitive
inhibition mode, monophenolase ([2]; listed as BU): reversible uncompetitive
KI′ Calc. from Km [2, 8]: 10.74 ± 3.36 µM
KI′ Calc. from Vmax [2, 8]: 9.17 ± 2.01 µM
KI′ Uncompetitive ([2]; averaged over both calculation methods): 9.95 µM
KI′ Uncompetitive ([2]; averaged over both calculation methods, listed as BU): 9.95 ± 2.69 µM
KI′ Calc. from Km ([2]; inhibitor 1.4 µM): 7.47 µM
KI′ Calc. from Vmax ([2]; inhibitor 1.4 µM): 7.44 µM
KI′ Calc. from Km ([2]; inhibitor 2.8 µM): 10.50 µM
KI′ Calc. from Vmax ([2]; inhibitor 2.8 µM): 10.19 µM
KI′ Calc. from Km ([2]; inhibitor 5.6 µM): 9.60 µM
KI′ Calc. from Vmax ([2]; inhibitor 5.6 µM): 7.55 µM
KI′ Calc. from Km ([2]; inhibitor 11.2 µM): 15.40 µM
KI′ Calc. from Vmax ([2]; inhibitor 11.2 µM): 11.49 µM
behaviour as substrate of mTYR (mTYR [3]): not a significant substrate
Vmax^app ([4]; inhibitor 1.4 µM): 10.93 ± 0.22 µM/min
Vmax^app ([4]; inhibitor 2.8 µM): 10.60 ± 0.88 µM/min
Vmax^app ([4]; inhibitor 5.6 µM): 8.17 ± 0.21 µM/min
Vmax^app ([4]; inhibitor 11.2 µM): 7.42 ± 0.26 µM/min
IC50 ([4]; pH 6.8, L-dopa 0.05 mM): 3.76 ± 0.96 µM
IC50 ([4]; pH 6.8, L-dopa 0.125 mM): 4.12 ± 1.39 µM
IC50 ([4]; pH 6.8, L-dopa 0.25 mM): 5.38 ± 0.9 µM
IC50 ([4]; pH 6.8, L-dopa 0.50 mM): 9.31 ± 0.85 µM
IC50 ([4]; pH 6.8, L-dopa 1.00 mM): 15.2 ± 1.25 µM
Ki [4, 9]: 3.3 ± 0.75 µM
Ki ([4]; diphenolase, inhibitor 1.4 µM): 3.21 µM
Ki ([4]; diphenolase, inhibitor 2.8 µM): 2.59 µM
Ki ([4]; diphenolase, inhibitor 5.6 µM): 3.07 µM
Ki ([4]; diphenolase, inhibitor 11.2 µM): 4.35 µM
KI (competitive) lower than KI′ (uncompetitive) ([4]; diphenolase): about 5 fold
KI′ Uncompetitive [4, 9]: 18.75 ± 5.15 µM
KI′ Uncompetitive ([4]; diphenolase, inhibitor 1.4 µM): 18.04 µM
KI′ Uncompetitive ([4]; diphenolase, inhibitor 2.8 µM): 25.24 µM
KI′ Uncompetitive ([4]; diphenolase, inhibitor 5.6 µM): 12.68 µM
KI′ Uncompetitive ([4]; diphenolase, inhibitor 11.2 µM): 19.05 µM
inhibition mode, diphenolase [4]: mixed-type
oxygen consumption, zero order regression slope b[1] (mTYR [5]; with tyrosinase 7 U/ml): -2.789e-9
oxygen consumption, zero order regression slope b[1] (mTYR [5]; without enzyme): -1.989e-9

Source: paper PMC10525132, “Potent Antioxidant and Anti-Tyrosinase Activity of Butein and Homobutein Probed by Molecular Kinetic and Mechanistic Studies” (Antioxidants, 2023)
